Laboratory results published in PMC9295122, “Sialic Acid Derivatives Inhibit SiaT Transporters and Delay Bacterial Growth” (ACS Chemical Biology, 2022).
“Also recorded” adds a separate entry of the source.

Tests used:
S. aureus COL = experiment: Growth in carbon-limited MM with inhibitor only, S. aureus; assay type: cell-based, Staphylococcus aureus; conditions: MM with casamino acids, compound 0.5 mM
Protocol: We first addressed whether these bacteria were able to catabolize the inhibitors and potentially use them as a carbon source for growth. Each strain was grown in carbon-limited defined minimal media (MM), without any carbon source other than sodium citrate for P. mirabilis and casamino acids for S. aureus, and supplemented with 3e and 3f. […] With these promising results, bacterial growth assays were performed in MM supplemented with Neu5Ac at a concentration of 3.2 mM and with 0.5 mM of compounds 3e and 3f (Figure 6a,b). The lag phase duration was determined as the time for the initial population density to increase twofold (see the horizontal dashed lines in Figure 6a,b). The effects were significant in the case of S. aureus, where a delayed growth of 4.4 and 9.4 h (P < 0.001) for compounds 3e and 3f, respectively, was observed. In the case of P. mirabilis, compound 3e indicated a delay in growth (3 h, P = 0.06), while no effect was recorded for compound 3f.
Figure S4. S. aureus COL (A) and P. mirabilis HI4320 (B) grown in defined carbon-limited minimal media (dotted line), with the addition of compound 3e (0.5 mM, solid line) or compound 3f (0.5 mM, dashed line). Average values of two biological replicates (n=2) each including two technical replicates are presented.
(1 picture or pasted object on this page, not shown here)

[1] = tested on: E. coli JW3193 ΔNanT expressing SaSiaT; experiment: Growth of E. coli JW3193 ΔNanT expressing SaSiaT; assay type: cell-based, Escherichia coli; conditions: for effect on growth on sialic acid: 0.5 mM sialic acid + 1 mM inhibitor; for growth with inhibitor as only carbon source: 1 mM inhibitor
Excerpt: To further investigate bacterial growth inhibition, we employed a model system of E. coli JW3193 ΔNanT expressing the SaSiaT and PmSiaT transporters. We designed these experiments to test if compounds 3e and 3f could inhibit the Neu5Ac transport in vivo because, without an active sialic acid transporter, E. coli JW3193 ΔNanT cannot grow on Neu5Ac.[16],[21]
For the bacterial growth experiments, the pJ422-01 plasmid containing the relevant SiaT or NanT gene was transformed into the E. coli JW3193 ΔnanT strain.[21] Throughout the experiments, strains containing the pJ422-01 plasmid were grown in media supplemented with 25 μg/mL Zeocin. E. coli BW25113, empty E. coli JW3193, and E. coli JW3193 with pJ422-01 containing the NanT gene were also used as controls. Strains were initially plated out from glycerol stocks before a single colony was picked and grown overnight in low salt LB media at 37 °C, with shaking at 180 rpm. Overnight cultures were diluted to an OD600 of 0.05 using low salt LB [supplemented with 1 mM isopropyl β-D-1-thiogalactopyranoside (IPTG)], before they were incubated at 37 °C, with shaking at 250 rpm, until they reached an OD600 of 0.3. At this point, 5 mL of each culture was centrifuged at 6000g for 5 min at 25 °C. The supernatants were removed and the cell pellets were resuspended in 5 mL of M9 MM without glucose prior to being centrifuged again at 6000g for 5 min at 25 °C. This wash step was repeated twice more before cells were resuspended to an OD600 of 0.5 in M9 MM without glucose. A Corning Costar Flat Bottom 96 Well TC-treated microplate was set up with 180 μL of M9 MM containing 1 mM IPTG (for the pJ422-01 strains) and either 5 mM glucose, 0.5 mM sialic acid, and 0.5 mM sialic acid with 1 mM of either inhibitor, or 1 mM of either inhibitor as a carbon source. To the 180 μL of media, 20 μL of each culture were added to the plate (OD600 of 0.05), before it was loaded into a FLUOstar Omega microplate reader (BMG Labtech). Growth was recorded at 600 nm every 10 min at 37 °C, with shaking at 300 rpm. Growth curves represent the mean and standard deviation of measurement from triplicate measurements (glucose/no carbon source in duplicate).
Fig. S5. Growth of E. coli JW3193 ΔNanT expressing the SaSiaT and PmSiaT transporters from a plasmid and using various carbon sources and in the presence or absence of inhibitors, 3e and 3f. (A) SaSiaT is expressed from a plasmid in the E. coli strain JW3193 ΔNanT, where the native sialic acid transporter (NanT) is deleted. The strain grows normally when in media with glucose (black line). There is no growth in the absence of any carbon source (grey line). In the presence of sialic acid at 0.5 mM the strain grows to an OD of ~0.5 (red line), showing that the transporter is functional. There is no growth in the […]

| Compound | ability to catabolize compound (growth vs MM only) (S. aureus COL) | effect on growth on sialic acid [1] | growth with inhibitor as only carbon source [1] |
| --- | --- | --- | --- |
| CC(=O)NC1C(OCc2cc(F)cc(F)c2)CC(O)(C(=O)O)OC1C(O)C(O)CO (stereo not drawn) [Compound 3e] | no ability to catabolize | no effect on growth; also recorded: neither inhibitor seemed to alter bacterial growth | no growth |
| CC(=O)NC1C(OCc2cc(Br)cc(Br)c2)CC(O)(C(=O)O)OC1C(O)C(O)CO (stereo not drawn) [Compound 3f] | no ability to catabolize | no effect on growth; also recorded: neither inhibitor seemed to alter bacterial growth | no growth |
